Source: patent US8680142B2, “Ascorbate, vitamin K3 and hydroxytolans in the treatment of cancer” (Kent State University, priority 2007, dated 2014)
Read-outs that look alike come from different tables or passages of the source.

Tests used:
[1] = system: T24 Human Bladder Cancer Cells; assay: MTT cytotoxicity assay against T24 cells; type: cell-based; settings: for IC50: Homo sapiens; for increase of cytotoxic potency in the combination over compound alone: VC/HT-1 200:1 after VC+VK3 pretreatment
Procedure: After 1 or 2 days of incubation at 37° C. in humidified CO2 in air, a colorimetric MTT assay (see below) was performed to evaluate the number of remaining viable T24 cells in each well.
The hydroxytolan HT-1 was dissolved in DMSO as 2 mM stock and was then subsequently diluted in MEM so that the final DMSO concentration in any well was <1%. Doubling dilutions of this stock solution were carried out as above.
This assay measures the formation of a colored product produced from a chromogenic substrate, the tetrazole 3-[4,5-dimethylthiazol-2-yl]-2,5 diphenyltetrazolium bromide (“MTT”). The yellow MTT is reduced to purple formazan in the mitochondria of living cells. A solubilization solution (typically dimethyl sulfoxide or sodium dodecyl sulfate (SDS) in dilute hydrochloric acid) is added to dissolve the insoluble purple formazan product into a colored solution. The absorbance of this colored solution is quantified by measuring at a certain wavelength (usually between 500 and 600 nm) by a spectrophotometer. […] This MTT assay is used widely to assess the cytotoxicity and selectivity of compounds such as anti-cancer drugs. The assay is suitable for rapid toxicity characterization of a test agent such as a drug formulation.
A lower CD50 indicates a greater cytotoxic activity (as a lower amount of the agent is needed to achieve a fixed level of cytotoxicity). Two agents can be compared by examining the fold-increase or decrease in their CD50 values.
The CD50 values were interpolated from the curves generated using 12 serial dilutions. When individual compounds were used a single CD50 value is shown. When a combination of two compounds was used, the CD50 of both compounds is presented. Values shown are the mean±standard error of three experiments with six readings per experiment.

terminal cancer patients = settings: cited from earlier work
[2] = system: patients with advanced cancer; settings: 10 g oral VC; double-blind, placebo-controlled; cited from earlier work
Mice = settings: daily 6.5 g/Kg for 6 weeks and 2 g/Kg for 2 years; cited from earlier work
hepatoma = settings: 10 mg/2 mL i.p. weekly for 4 weeks, cited from earlier work
tumor growth = settings: cited from earlier work
[3] = system: advanced lung cancer patients; settings: VK3 with mitomycin C, cited from earlier work
[4] = system: gastrointestinal cancer patients; settings: 43 patients; VK3 with mitomycin C; cited from earlier work
livers of nude mice = settings: appreciably larger doses of VK3; cited from earlier work
[5] = cited from earlier work
humans = settings: cited from earlier work
normal cells = settings: cited from earlier work
[6] = T-24, 24 h, incubation time 1 day, compound alone, read-out: CD50 of compounds tested Individually
[7] = T-24, 48 h, incubation time 2 days, compound alone, read-out: CD50 of compounds tested Individually
[8] = T-24, read-out: CD50 of each compound tested in combination after pretreatment with VC and VK3, incubation time 1 day, VC:HT-1 200:1 mixture, 2 h pretreatment with 150 μM VC and 1.5 μM VK3
[9] = T-24, read-out: CD50 of each compound tested in combination after pretreatment with VC and VK3, incubation time 2 days, VC:HT-1 200:1 mixture, 2 h pretreatment with 150 μM VC and 1.5 μM VK3

Oc1ccc(C#Cc2ccc(O)cc2)cc1 [HT-1, 4,4′-dihydroxytolan]
IC50 [1, 6]: 21.5 µM | IC50 [1, 7]: 10.5 ± 2.7 µM | IC50 [1, 8]: 1.13 µM | IC50 [1, 9]: 0.94 ± 0.55 µM | increase of cytotoxic potency in the combination over compound alone ([1]; after 1 day): about 19 fold | increase of cytotoxic potency in the combination over compound alone ([1]; after 2 days): about 11 fold

O=C1O[C@H]([C@@H](O)CO)C([O-])=C1O.[Na+] [VC, sodium ascorbate]
IC50 [1, 6]: 849 µM | IC50 [1, 7]: 896 ± 59.8 µM | IC50 [1, 8]: 226 µM | IC50 [1, 9]: 187 ± 99 µM | mean survival time (MST) (terminal cancer patients; 100 terminal cancer patients, 10 g/day i.v. for 10 days, then 10 g/day orally, controls 50 days): > 210 days | MST, ovarian cancer subjects (terminal cancer patients; six treated subjects with ovarian cancer, controls 71 days): 148 days | effectiveness of oral VC [2]: no benefits | mortality, weight changes, blood chemistry, hematology, histology, other pathologies (Mice): no abnormal rates

CC1=CC(=O)c2ccccc2C1=O [VK3, 2-methyl-1,4-naphthoquinone]
long term survivors (hepatoma): 5 out of 16 | survival (hepatoma; controls 17 days): 60 days | inhibition of tumor growth (tumor growth; VK3 225 mg/kg/day with methotrexate): 84% | inhibition of tumor growth (tumor growth; menadione 250 mg/kg/day with methotrexate 0.75 mg/kg/day): 99% | median survival ([3]; 23 patients): 5.5 months | patients with hematologic toxicity [3]: 30% | patients with some tumor regression [3]: 26% | objective response [4]: no objective response | hepatotoxicity (livers of nude mice): no hepatotoxicity | water solubility ([5]; bisulfate form): water soluble | maximum tolerated dose (humans; 48-hour i.v. infusion, followed by mitomycin C every four weeks): 2.5 g/m^2 | toxicity (humans; 400-500 mg/day over 3-5 consecutive days): without any appreciable toxicity | hemolysis (humans; VK3 2.5 g/m^2 then mitomycin C 15 mg/m2 every four weeks): no hemolysis

Oc1ccc(/C=C/c2cc(O)cc(O)c2)cc1 [resveratrol, 3,5,4′-trihydroxy-trans-stilbene]
aqueous solubility [5]: relatively low aqueous solubility | toxicity to normal cells (normal cells): significantly toxic to normal cells
